This is an account of results in US20260028354A1, “TETRAHYDRONAPHTHALENE DERIVATIVES AS ESTROGEN RECEPTOR DEGRADERS” (REGENT OF THE UNIVERSITY OF MICHIGAN, priority 2022, published 2026).

The experiment is described as follows: Western blot analysis for "B" compounds. It counts as cell-based. To be noted: read-out: Traditional Western Degradation Potency (DC50). An outline of the steps: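 Target protein levels given as relative mean band intensity over GAPDH from scanned immunoblots. Lysates of treated cells in RIPA buffer, equalized by BCA, separated on 10% gels and transferred to PVDF.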
Background: Immunoblotting shows a protein as a band on a membrane.

As for `O=C1CCC(N2C(=O)c3cc4c(cc3C2=O)CN(C2CC(C(=O)N3CCCC(Oc5ccc([C@@H]6c7ccc(O)cc7CC[C@@H]6c6ccccc6)cc5)C3)C2)C4)C(=O)N1` (mixture of isomers) [Compound B14, 2-(2,6-dioxopiperidin-3-yl)-6-(3-(3-(4-((1R,2S)-6-hydroxy-2-phenyl-1,2,3,4-tetrahydronaphthalen-1-yl)phenoxy)piperidine-1-carbonyl)cyclobutyl)-6,7-dihydropyrrolo[3,4-f]isoindole-1,3(2H,5H)-dione], the half-maximal degradation concentration (DC50) – broadly, the concentration at which degradation of the target reaches its halfway point – was greater than 100 nM.
Next, `O=C1CCC(N2C(=O)c3cc4c(cc3C2=O)CN(CC(=O)N2CCC3(CC2)CCN(c2ccc([C@@H]5c6ccc(O)cc6CC[C@@H]5c5ccc(F)cc5)cc2)C3)C4)C(=O)N1` (stereo partly drawn) [Compound B55, 2-(2,6-dioxopiperidin-3-yl)-6-(2-(2-(4-((1R,2S)-2-(4-fluorophenyl)-6-hydroxy-1,2,3,4-tetrahydronaphthalen-1-yl)phenyl)-2,8-diazaspiro[4.5]decan-8-yl)-2-oxoethyl)-6,7-dihydropyrrolo[3,4-f]isoindole-1,3(2H,5H)-dione]: 10 to 100 nM.
For the compound `O=C1CCC(N2C(=O)c3cc4c(cc3C2=O)CN(C(=O)CN2CC3(CCN(c5ccc([C@@H]6c7ccc(O)cc7CC[C@@H]6c6ccccc6)cc5)CC3)C2)CCC4)C(=O)N1` (mixture of isomers) [Compound B260, 2-(2,6-dioxopiperidin-3-yl)-6-(2-(7-(4-((1R,2S)-6-hydroxy-2-phenyl-1,2,3,4-tetrahydronaphthalen-1-yl)phenyl)-2,7-diazaspiro[3.5]nonan-2-yl)acetyl)-6,7,8,9-tetrahydroazepino[3,4-f]isoindole-1,3(2H,5H)-dione], the half-maximal degradation concentration (DC50) was greater than 100 nM.
Next, `O=C1CCC(N2C(=O)c3cc4c(cc3C2=O)CN([C@H]2CC[C@H](NC3CN(c5ccc([C@@H]6c7ccc(O)cc7CC[C@@H]6c6ccccc6)cc5)C3)CC2)C4)C(=O)N1` (stereo partly drawn) [Compound B103, 2-(2,6-dioxopiperidin-3-yl)-6-((1R,4r)-4-((1-(4-((1R,2S)-6-hydroxy-2-phenyl-1,2,3,4-tctrahydronaphthalen-1-yl)phenyl)azetidin-3-yl)amino)cyclohexyl)-6,7-dihydropyrrolo[3,4-f]isoindole-1,3(2H,5H)-dione]: greater than 100 nM; `O=C1CCC(N2C(=O)c3cc4c(cc3C2=O)CN(CC(=O)N2CC3(C2)CN(c2ccc([C@@H]5c6ccc(O)cc6CC[C@@H]5c5ccccc5)cc2)C3)C4)C(=O)N1` (mixture of isomers) [Compound B4, 2-(2,6-dioxopiperidin-3-yl)-6-(2-(6-(4-((1R,2S)-6-hydroxy-2-phenyl-1,2,3,4-tetrahydronaphthalen-1-yl)phenyl)-2,6-diazaspiro[3.3]heptan-2-yl)-2-oxoethyl)-6,7-dihydropyrrolo[3,4-f]isoindole-1,3(2H,5H)-dione]: 10 to 100 nM.
Next, `O=C1CCC(N2C(=O)c3cc4c(cc3C2=O)CCN(C(=O)CN2CCC3(CC2)CCN(c2ccc([C@@H]5c6ccc(O)cc6CC[C@@H]5c5ccccc5)cc2)CC3)CC4)C(=O)N1` (stereo partly drawn) [Compound B40, 2-(2,6-dioxopiperidin-3-yl)-7-(2-(9-(4-((1R,2S)-6-hydroxy-2-phenyl-1,2,3,4-tetrahydronaphthalen-1-yl)phenyl)-3,9-diazaspiro[5.5]undecan-3-yl)acetyl)-6,7,8,9-tetrahydroazepino[4,5-f]isoindole-1,3(2H,5H)-dione]: greater than 100 nM; `O=C1CCC(N2C(=O)c3cc4c(cc3C2=O)CN(CC(=O)N2CCC(Oc3ccc([C@@H]5c6ccc(O)cc6CC[C@@H]5c5ccccc5)cc3)CC2)C4)C(=O)N1` (stereo partly drawn) [Compound B60, 2-(2,6-dioxopiperidin-3-yl)-6-(2-(4-(4-((1R,2S)-6-hydroxy-2-phenyl-1,2,3,4-tetrahydronaphthalen-1-yl)phenoxy)piperidin-1-yl)-2-oxoethyl)-6,7-dihydropyrrolo[3,4-f]isoindole-1,3(2H,5H)-dione]: greater than 100 nM; `CN(C1CCC(N2Cc3cc4c(cc3C2)C(=O)N(C2CCC(=O)NC2=O)C4=O)CC1)C1CCN(c2ccc([C@@H]3c4ccc(O)cc4CC[C@@H]3c3ccccc3)cc2)CC1` (stereo partly drawn) [Compound B88, 2-(2,6-dioxopiperidin-3-yl)-6-(4-((1-(4-((1R,2S)-6-hydroxy-2-phenyl-1,2,3,4-tetrahydronaphthalen-1-yl)phenyl)piperidin-4-yl)(methyl)amino)cyclohexyl)-6,7-dihydropyrrolo[3,4-f]isoindole-1,3(2H,5H)-dione]: greater than 100 nM.
Next, `O=C1CCC(N2C(=O)c3cc4c(cc3C2=O)CN(CC(=O)N2CCC3(CC2)CCN(C(=O)c2ccc([C@@H]5c6ccc(O)cc6CC[C@@H]5c5ccccc5)cc2)CC3)C4)C(=O)N1` (stereo partly drawn) [Compound B290, 2-(2,6-dioxopiperidin-3-yl)-6-(2-(9-(4-((1R,2S)-6-hydroxy-2-phenyl-1,2,3,4-tetrahydronaphthalen-1-yl)benzoyl)-3,9-diazaspiro[5.5]undecan-3-yl)-2-oxoethyl)-6,7-dihydropyrrolo[3,4-f]isoindole-1,3(2H,5H)-dione]: greater than 100 nM.
As to `O=C1CCC(N2C(=O)c3cc4c(cc3C2=O)CN(CC(=O)N2CCC3(CC2)CCN(c2ccc([C@@H]5c6ccc(O)cc6CC[C@@H]5c5ccccc5)cc2)C3)C4)C(=O)N1` (mixture of isomers) [Compound B20, 2-(2,6-dioxopiperidin-3-yl)-6-(2-(2-(4-((1R,2S)-6-hydroxy-2-phenyl-1,2,3,4-tetrahydronaphthalen-1-yl)phenyl)-2,8-diazaspiro[4.5]decan-8-yl)-2-oxoethyl)-6,7-dihydropyrrolo[3,4-f]isoindole-1,3(2H,5H)-dione], the DC50 lay in the range of 10 to 100 nM.
For `O=C1CCC(N2Cc3cc4c(cc3C2=O)CN(C(=O)C2CCN(CC3CCN(c5ccc([C@@H]6c7ccc(O)cc7CC[C@@H]6c6ccccc6)cc5)CC3)CC2)C4)C(=O)N1` (stereo partly drawn) [Compound B199, 3-(6-(1-((1-(4-((1R,2S)-6-hydroxy-2-phenyl-1,2,3,4-tetrahydronaphthalen-1-yl)phenyl)piperidin-4-yl)methyl)piperidine-4-carbonyl)-1-oxo-3,5,6,7-tetrahydropyrrolo[3,4-f]isoindol-2(1H)-yl)piperidine-2,6-dione] the value was greater than 100 nM.
Take `O=C1CCC(N2C(=O)c3cc4c(cc3C2=O)CN(CC2CCN(CC3(F)CN(c5ccc([C@@H]6c7ccc(O)cc7CC[C@@H]6c6ccccc6)cc5)C3)CC2)C4)C(=O)N1` (stereo partly drawn) [Compound B74, 2-(2,6-dioxopiperidin-3-yl)-6-((1-((3-fluoro-1-(4-((1R,2S)-6-hydroxy-2-phenyl-1,2,3,4-tetrahydronaphthalen-1-yl)phenyl)azetidin-3-yl)methyl)piperidin-4-yl)methyl)-6,7-dihydropyrrolo[3,4-f]isoindole-1,3(2H,5H)-dione]: the DC50 was greater than 100 nM.
Next, `O=C1CCC(N2C(=O)c3cc4c(cc3C2=O)CN(c2ccc(CN3CC(Oc5ccc([C@@H]6c7ccc(O)cc7CC[C@@H]6c6ccccc6)cc5)C3)cn2)C4)C(=O)N1` (stereo partly drawn) [Compound B90, 2-(2,6-dioxopiperidin-3-yl)-6-(5-((3-(4-((1R,2S)-6-hydroxy-2-phenyl-1,2,3,4-tetrahydronaphthalen-1-yl)phenoxy)azetidin-1-yl)methyl)pyridin-2-yl)-6,7-dihydropyrrolo[3,4-f]isoindole-1,3(2H,5H)-dione]: greater than 100 nM.
